This note sets out measurements from patent US8883829B2, “2-phenyl-1,2,3-benzotriazoles for UV radiation absorbance” (DSM IP Assets B.V., priority 2010, dated 2014).

Each structure is given as a SMILES string. Read-outs that look alike come from different tables or passages of the source.

For data set [1] the following is noted: 7 days.
Protocol: (§1) 1.5 g of a cosmetic solvent (Capric/Caprylic Triglyceride (Mygliol 318) and C12-15 Alkylbenzoate (Finsolv TN)) is saturated with the respective Benzotriazol-derivative by adding 0.2 g portions while stirring at room temperature. The saturated solution is stirred for 7 days at room temperature. 1 ml of the supernatant is centrifuged and filtered in order to obtain a clear solution. The concentration of the Benzotriazol-derivative is determined by means of HPLC.
A short description of data set [2]: Determination of the solubility in cosmetic solvents. As to conditions: saturated solution stirred 7 days at room temperature, HPLC; for solubility Finsolv TN: C12-15 Alkylbenzoate; for solubility Myritol 318: Capric/Caprylic Triglyceride.
Protocol: as §1

In the case of `CCCCC(CC)COCc1cc(C)cc(-n2nc3ccccc3n2)c1O` (stereo not drawn) [Example 2, 2-(2H-Benzotriazol-2-yl)-6-(2-ethylhexyloxymethyl)-4-methyl-phenol], in data set [1], the “solubility Finsolv TN” value was 64% and the “solubility Myritol 318” value amounted to 66%.
Take `CCCCC(CC)COCc1cc(C)cc(-n2nc3ccc(Cl)cc3n2)c1O` (stereo not drawn) [Example 12, 2-(5-Chloro-benzotriazol-2-yl)-6-(2-ethylhexyloxymethyl)-4-methyl-phenol]: in data set [2], the “solubility Finsolv TN” value is 19% and the “solubility Myritol 318” value is 12%.
As to `CCCCC(CC)C(=O)OCc1cc(C)cc(-n2nc3ccccc3n2)c1O` (stereo not drawn) [Example 8, 2-Ethyl-hexanoic acid 3-(2H-benzotriazol-2-yl)-2-hydroxy-5-methyl-benzyl ester], in data set [2], the “solubility Finsolv TN” value is on record as 42% and the “solubility Myritol 318” value worked out at 24%.
The matching figures for `Cc1cc(CO)c(O)c(-n2nc3ccccc3n2)c1` [Example 14, 2-(2H-Benzotriazol-2-yl)-6-hydroxymethyl-4-methyl-phenol]: 0.02% and 0.01%.
The matching figures for `Cc1cc(COCCC(C)C)c(O)c(-n2nc3ccccc3n2)c1` [Example 6, 2-(2H-Benzotriazol-2-yl)-6-(3-methyl-butoxymethyl)-4-methyl-phenol]: 37% and 36%.
The matching figures for `Cc1cc(COC(=O)CC(C)C)c(O)c(-n2nc3ccccc3n2)c1` [Example 9, 3-Methyl-butyric acid 3-(2H-benzotriazol-2-yl)-2-hydroxy-5-methyl-benzyl ester]: 8% and 6%.
